PubChem BioAssay (NCI)
Several values for one entry are separate records, joined by “and”; a condition that tells them apart may be missing. Equal entries are not always repeated.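 A five-concentration, 48-hour dose response in 96-well plates underlies each endpoint, interpolated linearly between surrounding concentrations. Here, GI50 denotes the concentration required for 50% inhibition of growth. TGI marks complete inhibition of growth.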 Activity calls are given as the source filed them. No stated cut-off is given here; in the data, active means GI50 below about 0.43 µM; inactive means the rest.

Experiments:
Assay in all cases: DTP human tumour cell line panel, 48 h
LXFL 529 NSCLC = test system: LXFL 529 NSCLC
M19-MEL melanoma = test system: M19-MEL melanoma
DLD-1 colon = test system: DLD-1 colon
SNB-78 CNS = test system: SNB-78 CNS
DMS 114 small cell lung = test system: DMS 114 small cell lung
HOP-18 NSCLC = test system: HOP-18 NSCLC
XF 498 CNS = test system: XF 498 CNS
MDA-N = test system: MDA-N
DMS 273 small cell lung = test system: DMS 273 small cell lung

Structure (SMILES)	TGI (LXFL 529 NSCLC)	TGI (M19-MEL melanoma)	TGI (DLD-1 colon)	TGI (SNB-78 CNS)	TGI (DMS 114 small cell lung)	TGI (HOP-18 NSCLC)	TGI (XF 498 CNS)	TGI (MDA-N)	TGI (DMS 273 small cell lung)	also measured
Cc1ccc(NC(=O)CC/C(CC(=O)C(C)(C)C)=N/NC(=O)C[N+](C)(C)C)cc1C	> 100 µM	> 100 µM	> 100 µM	> 100 µM	> 100 µM	> 100 µM				
CSc1nc2c(nc(N)n2C2OC(COC(C)=O)C(OC(C)=O)C(OC(C)=O)C2OC(C)=O)c(=O)n1C (configuration not stated)	> 100 µM		> 100 µM	> 100 µM	> 100 µM	> 100 µM	> 100 µM			
COc1ccc(CNC(C)C(=O)O)cc1 (configuration not stated)								> 100 µM		
CCOC(=O)C1=C(C)N(Cc2ccccc2)C(=O)C1CC#N (configuration not stated)	> 100 µM	> 100 µM	> 100 µM	> 100 µM	> 100 µM	> 100 µM			> 100 µM	
O=S1(=O)NC2CCC3NS(=O)(=O)NC4CCC(N1)N4S(=O)(=O)N23 (configuration not stated)								> 100 µM		
COC(=O)NC(=Nc1ccc(Oc2ccccc2)cc1NC=O)NC(=O)OC	> 100 µM	> 100 µM	> 100 µM		0.864 µM	> 100 µM	6.75 µM			
C=C(C)C1CC=C(C)CC1 (configuration not stated)	> 100 µM and 1550 µM	> 100 µM and 1580 µM	> 100 µM and 1610 µM	> 100 µM and 1960 µM	> 100 µM and 1650 µM	> 100 µM	> 100 µM and 1720 µM		> 100 µM and 1720 µM	GI50 (LXFL 529 NSCLC): > 100 µM; GI50 (XF 498 CNS): > 100 µM; GI50 (M19-MEL melanoma): > 100 µM; GI50 (DLD-1 colon): > 100 µM; GI50 (DMS 273 small cell lung): > 100 µM; GI50 (SNB-78 CNS): > 100 µM; GI50 (DMS 114 small cell lung): > 100 µM
COc1cc2oc(-c3ccc(O)cc3O)c(CC=C(C)C)c(=O)c2c(O)c1/C=C/C(C)C								8.34 µM		
Cn1c(=O)c2ccc(-c3ccc(Br)cc3)nc2n(C)c1=O	> 100 µM	> 100 µM	> 100 µM	> 100 µM	> 100 µM	> 100 µM	> 100 µM		> 100 µM	
CCC(CCC(C)C1CCC2C3CC=C4CC(OC5OC(CO)C(O)C(O)C5O)CCC4(C)C3CCC12C)C(C)C (configuration not stated)								> 100 µM		
COc1ccc2c(c1)[n+]([O-])c(-c1ccc(Br)cc1)c(N)[n+]2[O-]		> 100 µM	> 100 µM	> 100 µM	57.9 µM	> 100 µM	> 100 µM		68.9 µM	
O=C(CC1(O)C(=O)Nc2ccccc21)c1ccc(F)cc1 (configuration not stated)	> 100 µM	> 100 µM	> 100 µM	> 100 µM	> 100 µM		> 100 µM		> 100 µM	
CC(C)=CCC1=C(OCC(=O)O)C(=O)c2ccccc2C1=O								34.8 µM		
N#Cc1cc([N+](=O)[O-])ccc1NC(=O)C(F)(F)F	> 100 µM	> 100 µM	> 100 µM	> 100 µM	> 56.1 µM	> 100 µM	> 100 µM		> 100 µM	
C/C=C(/CCC1NCCC2c3ccccc3NC12)[Si](C)(C)C (configuration not stated)	13 µM	24.8 µM	17.1 µM	26.2 µM	14.3 µM	26.7 µM	12.1 µM		21.7 µM	
c1ccc(CN2CCC3(CC2)SSC2(CCN(Cc4ccccc4)CC2)SS3)cc1								> 100 µM		
COC(=O)NN1C(C)=C(C(=O)OC)C2(C#N)C(C(=O)OC)=C(C)N(NC(=O)OC)C12N (configuration not stated)	> 100 µM	> 100 µM	> 100 µM	> 100 µM	> 100 µM	> 100 µM	> 100 µM		> 100 µM	
COC1=C(Br)C(O)C2(C=C1Br)CC(C(=O)NCCCCNC(=O)C1=NOC3(C=C(Br)C(OC)=C(Br)C3O)C1)=NO2 (configuration not stated)								39.7 µM		
NS(=O)(=O)c1ccc(NCc2cnc3ccccc3n2)cc1								> 100 µM		
C[C@]12CC[C@H]3[C@@H](CCC4=CC(=O)CC[C@@]43C)[C@@H]1CC[C@@H]2C(=O)COS(=O)(=O)c1ccc(Br)cc1								33.8 µM		

Structure (SMILES)	TGI (LXFL 529 NSCLC)	TGI (M19-MEL melanoma)	TGI (DLD-1 colon)	TGI (SNB-78 CNS)	TGI (DMS 114 small cell lung)	TGI (HOP-18 NSCLC)	TGI (XF 498 CNS)	TGI (MDA-N)	TGI (DMS 273 small cell lung)	also measured
CC1(C)CCCC(C)(C2CCC3(C)C2C(O)CC2C4(C)CCC(O)C(C)(C)C4C(O)CC23C)O1 (configuration not stated)								30.8 µM		
COC(C(=O)C(O)C(C)O)C1Cc2cc3cc(OC4CC(OC5CC(O)C(O)C(C)O5)C(O)C(C)O4)c(C)c(O)c3c(O)c2C(=O)C1OC1CC(OC2CC(O)C(OC3CC(C)(O)C(O)C(C)O3)C(C)O2)C(O)C(C)O1 (configuration not stated)		0.31 ng/mL	150 ng/mL	21.4 ng/mL	0.479 ng/mL			128 ng/mL and 328 ng/mL	2.4 ng/mL	outcome (XF 498 CNS): inactive; GI50 (M19-MEL melanoma): 0.0253 ng/mL; GI50 (DLD-1 colon): 0.0828 ng/mL; GI50 (DMS 273 small cell lung): 0.0407 ng/mL; GI50 (MDA-N): 13.9 ng/mL and 25.8 ng/mL; GI50 (SNB-78 CNS): 0.0424 ng/mL; GI50 (DMS 114 small cell lung): 0.0556 ng/mL; outcome (HOP-18 NSCLC): inactive
CCOc1ccc2c(C)cc(=O)oc2c1								> 100 µM		
Cn1c2ccccc2c(=O)c2c(O)cc3c(c21)CC(C1(C)CO1)O3 (configuration not stated)	1.5 µM		26.1 µM		5.11 µM	> 93.2 µM	4.73 µM	2.73 µM	49.2 µM	
C=C1COC(O)(C2OCOC(C3CC(=O)NC(=O)C3)C2O)C1C (configuration not stated)	0.0897 µM and 0.101 µM	0.00849 µM and 0.0215 µM	0.0556 µM and 0.0675 µM	0.0971 µM and 0.0358 µM	0.0271 µM and 0.0437 µM	0.035 µM and 0.0686 µM		0.0289 µM	0.0283 µM and 0.0417 µM	GI50 (DLD-1 colon): 0.0109 µM; GI50 (HOP-18 NSCLC): 0.0112 µM
O=S(=O)(c1ccc(Br)cc1)N1CCN(S(=O)(=O)c2ccc(Br)cc2)CC1								> 100 µM		
COc1ccc2c(Cc3c4ccccc4cc4ccccc34)cncc2c1O								4.55 µM		
CSc1ccc(OCC2OC2O)cc1 (configuration not stated)	> 100 µM	> 100 µM	> 100 µM	> 100 µM	86.3 µM	> 100 µM	78.7 µM		> 100 µM	
c1cc(CSSCc2ccncc2)ccn1								62.9 µM		
C/C(=N\NC(=S)N1CCN(C2CCCCCC2)CC1)c1ccccn1	2.67 µM	3.37 µM	1.96 µM	19 µM	0.0461 µM and < 0.0408 µM	7.89 µM			8.26 µM and 2.19 µM	GI50 (M19-MEL melanoma): 0.928 µM; GI50 (DLD-1 colon): < 0.001 µM; GI50 (DMS 273 small cell lung): < 0.001 µM; GI50 (SNB-78 CNS): 4.58 µM; GI50 (DMS 114 small cell lung): < 0.001 µM; GI50 (HOP-18 NSCLC): 0.422 µM
Cc1cc(=O)n2c3c(c4c(cc13)c(CO)cc(=O)n4C)OC2	34 µM	46.4 µM	> 100 µM	> 100 µM	47.5 µM	62.6 µM	32.4 µM		> 100 µM	
CC(=O)[CH-]C(=O)c1ccccc1.CC(=O)[CH-]C(=O)c1ccccc1.CC[C@H](/C=C/C(C)[C@H]1CCC2[C@@H]3CC=C4C[C@@H]([O-])CC[C@]4(C)C3CC[C@@]21C)C(C)C.CC[O-].[Ti+4] (some centres not stated)	> 100 µM	> 100 µM	> 100 µM						> 100 µM	GI50 (LXFL 529 NSCLC): > 100 µM; GI50 (M19-MEL melanoma): > 100 µM; GI50 (DLD-1 colon): > 100 µM; GI50 (DMS 273 small cell lung): > 100 µM
Cc1cc(Cl)ccc1NC(=O)CCCC(=O)C1CCC/C1=N\NC(=O)CC#N (configuration not stated)	> 100 µM	> 100 µM	> 100 µM	> 100 µM	> 100 µM	97.9 µM	> 100 µM		> 100 µM	
O=C(N/C(=C\c1ccc(/C=C(\NC(=O)c2ccccc2)c2nc3cc(Cl)ccc3[nH]2)cc1)c1nc2cc(Cl)ccc2[nH]1)c1ccccc1	> 100 µM	> 100 µM	> 100 µM	> 100 µM	> 100 µM	> 100 µM	> 100 µM		50.4 µM	
CSCC[C@H](NC(=O)[C@H](CC(C)C)NC(=O)[C@@H](Cc1ccccc1)NC(=O)CNC(=O)[C@@H](NC(=O)[C@H](C)NC(=O)[C@H](Cc1c[nH]c2ccccc12)NC(=O)[C@H](CCC(N)=O)NC(=O)[C@H](N)CC(N)=O)C(C)C)C(N)=O								> 12.5 µM		
NC(=S)N/N=C/c1ccc(N)cn1								> 10 µM		
Cc1cc2nc3ccc(=[N+](C)C)cc-3sc2cc1N	18.1 µM	0.354 µM	23.5 µM	54.9 µM	2.79 µM	36.6 µM		2.35 µM	12.2 µM	
COc1cccc(NC(=O)C(C)(C)C)c1SSc1c(NC(=O)C(C)(C)C)cccc1OC	29.9 µM	> 100 µM	> 61.8 µM	51.2 µM		> 100 µM	35.7 µM		> 100 µM	
N#CC1(Nc2ccc(-c3ccc(NC4(C#N)CCCC4)cc3)cc2)CCCC1								> 100 µM		
